Test results: patent US6737383B1, “Herbicidal oxadiazolidines” (priority 1999, dated 2004)

How the values were obtained:
winter wheat [1] = assay: Test E winter wheat; format: in vivo, Triticum aestivum; conditions: Preemergence
blackgrass [2] = assay: Test B pre/postemergence blackgrass; format: in vivo, Alopecurus myosuroides
Method in brief: (§1)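 Response is a visual 0-to-10 score relative to untreated plants, where 0 means no effect and 10 means complete control, taken twelve to sixteen days after application. Treatments went onto soil at planting and onto foliage of 1- to 4-leaf plants, using a surfactant-containing non-phytotoxic solvent.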

green foxtail = assay: Test E green foxtail; format: in vivo, Setaria viridis; conditions: Preemergence
Italian ryegrass = assay: Test E Italian ryegrass; format: in vivo, Lolium multiflorum; conditions: Preemergence
surinam grass = assay: Test B pre/postemergence surinam grass; format: in vivo, Brachiaria decumbens
Method in brief: as §1

blackgrass [3] = assay: Test E blackgrass; format: in vivo, Alopecurus myosuroides; conditions: Preemergence
bermuda-grass = assay: Test D bermudagrass; format: in vivo, Cynodon dactylon; conditions: Preemergence, 0 to 100 scale
Method in brief: (§2)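 Herbicide screen in the greenhouse. A non-phytotoxic solvent mixture with surfactant carried the test chemical; in pre-emergence tests it went onto the soil of pots seeded no more than a day earlier. Injury was scored by eye 14 to 21 days after application, 0 to 100.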

smallflower flatsedge = assay: Test B flood test smallflower flatsedge; format: in vivo, Cyperus difformis
Method in brief: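 Read-out is a visual response score from 0 (no effect) to 10 (complete control), assigned by comparison with untreated controls. Treatment was applied at the 2-leaf stage, and plants stayed in the greenhouse for twelve to sixteen days before scoring.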

wild oat = assay: Test E wild oat; format: in vivo, Avena fatua; conditions: Preemergence
winter wheat [4] = assay: Test E winter wheat; format: in vivo, Triticum aestivum; conditions: Postemergence
Method in brief: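 Greenhouse test: for postemergence, foliar application at 1- to 4-leaf stage; compound in non-phytotoxic solvent with surfactant. Rating is visual, relative to untreated controls, about 21 to 28 days after treatment.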

common pursiane = assay: Test D common purslane; format: in vivo, Portulaca oleracea
Method in brief: as §2

winter barley = assay: Test E winter barley; format: in vivo, Hordeum vulgare; conditions: Preemergence
bedstraw = assay: Test B pre/postemergence bedstraw; format: in vivo, Galium aparine
Method in brief: as §1

[5] = Rate 62 g/ha, 0 to 100 scale, 0 no effect, 100 complete control
[6] = Rate 125 g/ha, 0 to 100 scale (0 no effect, 100 complete control)
[7] = Postemergence, Rate 125 g/ha, scale of 0 to 10 where 0 is no effect and 10 is complete control
[8] = Postemergence, Rate 250 g/ha, scale 0 to 10, 0 no effect, 10 complete control
[9] = Preemergence, Rate 62 g/ha, scale 0 to 10 (0 no effect, 10 complete control)
[10] = Preemergence, Rate 125 g/ha, scale 0 to 10 (0 no effect, 10 complete control)
[11] = Preemergence, Rate 250 g/ha, scale of 0 to 10 where 0 is no effect and 10 is complete control
[12] = Preemergence, Rate 500 g/ha, scale 0 to 10 (0 no effect, 10 complete control)
[13] = Rate 500 g/ha, Postemergence, scale 0 to 10, 0 no effect, 10 complete control
[14] = Postemergence, Rate 62 g/ha, scale 0 to 10, 0 is no effect, 10 is complete control
[15] = Rate 125 g/ha, Postemergence, scale 0 to 10, 0 no effect, 10 complete control
[16] = Rate 500 g/ha, Postemergence, scale of 0 to 10 where 0 is no effect and 10 is complete control
[17] = Rate 16 g/ha, 0 no injury, 100 complete control
[18] = Rate 32 g/ha, 0 no injury, 100 complete control
[19] = Rate 64 g/ha, 0 no injury, 100 complete control
[20] = Rate 125 g/ha, 0 no injury, 100 complete control
[21] = Postemergence (flood test species), Rate 125 g/ha, scale of 0 to 10 where 0 is no effect and 10 is complete control
[22] = Pre-emergence, Rate 1000 g/ha, scale 0 to 10 (0 no effect, 10 complete control)
[23] = Rate 250 g/ha, Postemergence (flood test), scale 0 to 10, 0 is no effect, 10 is complete control
[24] = Rate 250 g/ha, headed Pre-emergence (flood test species), scale 0 to 10 (0 no effect, 10 complete control)
[25] = Rate 500 g/ha, headed Pre-emergence (flood test species), scale 0 to 10 (0 no effect, 10 complete control)
[26] = Rate 500 g/ha, listed under Postemergence (flood test species), scale 0 to 10, 0 no effect, 10 complete control
[27] = Rate 2000 g/ha, Pre-emergence (as headed), scale 0 to 10
[28] = Rate 250 g/ha, 0 to 100 scale (0 no effect, 100 complete control)
[29] = Rate 16 g/ha; Preemergence; 0 to 100 scale, 0 no injury, 100 complete control
[30] = Rate 32 g/ha; Preemergence; 0 to 100 scale, 0 no injury, 100 complete control
[31] = Rate 64 g/ha, Preemergence; 0 to 100 scale, 0 no injury, 100 complete control
[32] = Rate 125 g/ha, Preemergence; 0 to 100 scale, 0 no injury, 100 complete control
[33] = Rate 250 g/ha; Preemergence; 0 to 100 scale
[34] = Rate 500 g/ha, Preemergence; 0 to 100 scale
[35] = Rate 500 g/ha; Preemergence; 0 to 100 scale
[36] = Rate 31 g/ha, 0 to 100 scale, 0 no effect, 100 complete control
[37] = Preemergence, Rate 500 g/ha, scale 0 (no effect) to 10 (complete control)

CCn1c(=O)on(C(=O)N(c2ccc(Cl)cc2)C(C)C)c1=O [Compound 108]
Plant response rating, Wheat (winter) (winter wheat [1]; [5]): 0 | Plant response rating, Wheat (winter) (winter wheat [1]; [6]): 10 | Plant response rating, Wheat (winter) (winter wheat [1]; Rate 250 g/ha, 0 to 100 scale): 10 | Blackgrass plant response rating (blackgrass [2]; [7]): 7 | Blackgrass plant response rating (blackgrass [2]; [8]): 7 | Blackgrass plant response rating (blackgrass [2]; [9]): 5 | Plant response rating, Blackgrass (blackgrass [2]; [10]): 7 | Plant response rating, Blackgrass (blackgrass [2]; [11]): 9 | Blackgrass plant response rating (blackgrass [2]; [12]): 10 | Blackgrass plant response rating (blackgrass [2]; Rate 62 g/ha, Postemergence, scale of 0 to 10 where 0 is no effect and 10 is complete control): 4 | Blackgrass plant response rating (blackgrass [2]; [13]): 8 | Plant response rating, Green foxtail (green foxtail; [5]): 65 | Plant response rating, Green foxtail (green foxtail; Rate 250 g/ha, 0 to 100 scale): 90 | Plant response rating, I. Ryegrass (Italian ryegrass; [5]): 20 | Plant response rating, I. Ryegrass (Italian ryegrass; [6]): 45 | Plant response rating, I. Ryegrass (Italian ryegrass; Rate 250 g/ha, 0 to 100 scale): 95 | B. signalgrass plant response rating (surinam grass; [14]): 0 | B. signalgrass plant response rating (surinam grass; [8]): 3 | B. signalgrass plant response rating (surinam grass; [9]): 4 | Plant response rating, B. signalgrass (surinam grass; [10]): 6 | Plant response rating, B. signalgrass (surinam grass; [11]): 7 | B. signalgrass plant response rating (surinam grass; [12]): 9 | B. signalgrass plant response rating (surinam grass; [15]): 3 | B. signalgrass plant response rating (surinam grass; [16]): 6 | Plant response rating, Blackgrass (blackgrass [3]; [5]): 40 | Plant response rating, Blackgrass (blackgrass [3]; [6]): 75 | Plant response rating, Blackgrass (blackgrass [3]; Rate 250 g/ha, 0 to 100 scale): 90 | Plant response rating, Bermudagrass (bermuda-grass; [17]): 85 | Plant response rating, Bermudagrass (bermuda-grass; [18]): 98 | Plant response rating, Bermudagrass (bermuda-grass; [19]): 100 | Plant response rating, Bermudagrass (bermuda-grass; [20]): 100 | Plant response rating, Bermudagrass (bermuda-grass; Rate 250 g/ha): 100 | Plant response rating, Bermudagrass (bermuda-grass; Rate 500 g/ha): 100 | S. Flatsedge plant response rating (smallflower flatsedge; [21]): 0 | S. Flatsedge plant response rating (smallflower flatsedge; [22]): 0 | S. Flatsedge plant response rating (smallflower flatsedge; Rate 62 g/ha, Postemergence section, flood test species, scale of 0 to 10 where 0 is no effect and 10 is complete control): 0 | Plant response rating, S. Flatsedge (smallflower flatsedge; [23]): 0 | S. Flatsedge plant response rating (smallflower flatsedge; [24]): 0 | Plant response rating, S. Flatsedge (smallflower flatsedge; [25]): 0 | S. Flatsedge plant response rating (smallflower flatsedge; [26]): 0 | S. Flatsedge plant response rating (smallflower flatsedge; [27]): 0 | Plant response rating, Wild oat (wild oat; [5]): 15 | Plant response rating, Wild oat (wild oat; [6]): 30 | Plant response rating, Wheat (winter) (winter wheat [4]; Rate 62 g/ha, 0 to 100 scale): 0 | Plant response rating, Wheat (winter) (winter wheat [4]; Rate 125 g/ha, 0 to 100 scale): 20 | Plant response rating, Wheat (winter) (winter wheat [4]; [28]): 40 | Plant response rating, C. purslane (common pursiane; [29]): 0 | Plant response rating, C. purslane (common pursiane; [30]): 0 | Plant response rating, C. purslane (common pursiane; [31]): 0 | Plant response rating, C. purslane (common pursiane; [32]): 0 | Plant response rating, C. purslane (common pursiane; [33]): 0 | Plant response rating, C. purslane (common pursiane; [34]): 80 | Plant response rating, C. purslane (common pursiane; [35]): 0 | Plant response rating, Barley (winter) (winter barley; [5]): 10 | Plant response rating, Barley (winter) (winter barley; [6]): 20 | Plant response rating, Barley (winter) (winter barley; Rate 250 g/ha, 0 to 100 scale): 10 | Bedstraw plant response rating (bedstraw; [14]): 0 | Bedstraw plant response rating (bedstraw; [8]): 2 | Bedstraw plant response rating (bedstraw; [9]): 0 | Plant response rating, Bedstraw (bedstraw; [10]): 5 | Plant response rating, Bedstraw (bedstraw; [11]): 8 | Bedstraw plant response rating (bedstraw; [12]): 8 | Bedstraw plant response rating (bedstraw; [15]): 0 | Bedstraw plant response rating (bedstraw; [13]): 6

C=CCn1c(=O)on(C(=O)N(c2ccccc2)C(C)C)c1=O [Compound 93]
Plant response rating, Wheat (winter) (winter wheat [1]; [36]): 20 | Plant response rating, Wheat (winter) (winter wheat [1]; [5]): 40 | Plant response rating, Wheat (winter) (winter wheat [1]; [6]): 40 | Plant response rating, Wheat (winter) (winter wheat [1]; Rate 250 g/ha, 0 to 100 scale): 100 | Blackgrass plant response rating (blackgrass [2]; [14]): 7 | Blackgrass plant response rating (blackgrass [2]; [7]): 8 | Blackgrass plant response rating (blackgrass [2]; [8]): 8 | Blackgrass plant response rating (blackgrass [2]; [9]): 9 | Plant response rating, Blackgrass (blackgrass [2]; [10]): 10 | Plant response rating, Blackgrass (blackgrass [2]; [11]): 10 | Blackgrass plant response rating (blackgrass [2]; [37]): 10 | Blackgrass plant response rating (blackgrass [2]; [13]): 8 | Plant response rating, Green foxtail (green foxtail; [36]): 30 | Plant response rating, Green foxtail (green foxtail; [5]): 70 | Plant response rating, Green foxtail (green foxtail; [6]): 80 | Plant response rating, I. Ryegrass (Italian ryegrass; [36]): 30 | Plant response rating, I. Ryegrass (Italian ryegrass; [5]): 50 | Plant response rating, I. Ryegrass (Italian ryegrass; [6]): 70 | Plant response rating, I. Ryegrass (Italian ryegrass; Rate 250 g/ha, 0 to 100 scale): 100 | B. signalgrass plant response rating (surinam grass; [14]): 3 | B. signalgrass plant response rating (surinam grass; [8]): 8 | Plant response rating, B. signalgrass (surinam grass; [10]): 7 | B. signalgrass plant response rating (surinam grass; [37]): 8 | B. signalgrass plant response rating (surinam grass; [15]): 5 | B. signalgrass plant response rating (surinam grass; [16]): 9 | Plant response rating, Blackgrass (blackgrass [3]; [36]): 0 | Plant response rating, Blackgrass (blackgrass [3]; [5]): 50 | Plant response rating, Blackgrass (blackgrass [3]; [6]): 70 | Plant response rating, Blackgrass (blackgrass [3]; Rate 250 g/ha, 0 to 100 scale): 75 | Plant response rating, Bermudagrass (bermuda-grass; [17]): 80 | Plant response rating, Bermudagrass (bermuda-grass; [18]): 80 | Plant response rating, Bermudagrass (bermuda-grass; [19]): 90 | Plant response rating, Bermudagrass (bermuda-grass; [20]): 100 | Plant response rating, Bermudagrass (bermuda-grass; Rate 250 g/ha): 100 | Plant response rating, Bermudagrass (bermuda-grass; Rate 500 g/ha): 100 | S. Flatsedge plant response rating (smallflower flatsedge; [21]): 0 | S. Flatsedge plant response rating (smallflower flatsedge; [14]): 0 | S. Flatsedge plant response rating (smallflower flatsedge; [22]): 0 | Plant response rating, S. Flatsedge (smallflower flatsedge; [23]): 0 | S. Flatsedge plant response rating (smallflower flatsedge; [24]): 0 | Plant response rating, S. Flatsedge (smallflower flatsedge; [25]): 0 | S. Flatsedge plant response rating (smallflower flatsedge; [26]): 6 | S. Flatsedge plant response rating (smallflower flatsedge; [27]): 0 | Plant response rating, Wild oat (wild oat; [36]): 40 | Plant response rating, Wild oat (wild oat; [5]): 50 | Plant response rating, Wild oat (wild oat; [6]): 60 | Plant response rating, Wheat (winter) (winter wheat [4]; [36]): 0 | Plant response rating, Wheat (winter) (winter wheat [4]; Rate 62 g/ha, 0 to 100 scale): 20 | Plant response rating, Wheat (winter) (winter wheat [4]; Rate 125 g/ha, 0 to 100 scale): 65 | Plant response rating, Wheat (winter) (winter wheat [4]; [28]): 0 | Plant response rating, C. purslane (common pursiane; [29]): 0 | Plant response rating, C. purslane (common pursiane; [30]): 0 | Plant response rating, C. purslane (common pursiane; [31]): 0 | Plant response rating, C. purslane (common pursiane; [32]): 0 | Plant response rating, C. purslane (common pursiane; [33]): 0 | Plant response rating, C. purslane (common pursiane; [34]): 80 | Plant response rating, C. purslane (common pursiane; [35]): 0 | Plant response rating, Barley (winter) (winter barley; [36]): 20 | Plant response rating, Barley (winter) (winter barley; [5]): 50 | Plant response rating, Barley (winter) (winter barley; [6]): 50 | Plant response rating, Barley (winter) (winter barley; Rate 250 g/ha, 0 to 100 scale): 50 | Bedstraw plant response rating (bedstraw; [9]): 0 | Plant response rating, Bedstraw (bedstraw; [10]): 0 | Plant response rating, Bedstraw (bedstraw; [11]): 0 | Bedstraw plant response rating (bedstraw; [37]): 3 | Bedstraw plant response rating (bedstraw; [13]): 7
